Test: recombinant barcode read abundance after kanamycin selection (control-corrected) (log10(CPM+1)); higher = more efficient recombination; sequences stand for … in AGTGCAGAGAAAATCGGCCAGTTTTCTCTGCCTGCAGTCCGCATGCCGT…AGATTTATGCAGCGGACTGCCTTTCTCCCAAAGTGATAAACCGGACAGTATCATGGACCGGTTTTCCCGGTAATCCGTATTTGCAAGGTTGGTTTCACT; site = the 11-nt target
How it was run: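 Duplicate cultures were plated either on chloramphenicol/ampicillin LB agar, serving as control, or on chloramphenicol/ampicillin/kanamycin with 0.1 mM IPTG. These came from a pooled E. coli library co-electroporated with a donor plasmid, each member pairing a target with an IS621 bridge RNA target-binding loop. Recombination efficiency equals averaged, control-corrected counts per million of recombinant-junction barcodes. It is listed as log10(CPM+1).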
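Also: IS621 recombinase and bridge RNA in Escherichia coli cells.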

Row | Sequence | recombinant barcode read abundance (log10)
1 | GCTTGTTCTTGGGTTCTAACCTGTTGCCT (site ACTTGTTCTAG) | 0.0443
2 | GCTTGTTCTTGGGTTCTAACCTGTTGCCT (site CCTTGTTCTAG) | 0.501
3 | GCTTGTTCTTGGGTTCTAACCTGTTGCCT (site GCTTGTTCTAG) | 0.233
4 | GCTTGTTCTTGGGTTCTAACCTGTTGCCT (site TCTTGTTCTAG) | 0.11
5 | GCTTTACCTTGGGTTCTAACCTGTTGCCT (site ACTTTACCTAG) | 0.0836
6 | GCTTTACCTTGGGTTCTAACCTGTTGCCT (site CCTTTACCTAG) | 0.019
7 | GCTTTACCTTGGGTTCTAACCTGTTGCCT (site GCTTTACCTAG) | 0.456
8 | GCTTTACCTTGGGTTCTAACCTGTTGCCT (site TCTTTACCTAG) | 0.0534
9 | GCTTTGCCTTGGGTTCTAACCTGTTGCCT (site ACTTTCCCTAG) | 0.0475
10 | GCTTTGCCTTGGGTTCTAACCTGTTGCCT (site GCTTTGCCTAG) | 0.409
11 | GGAACGTCTTGGGTTCTAACCTGTTGCTT (site GGAACCTCTAA) | 0.0353
12 | GGAACGTCTTGGGTTCTAACCTGTTGCTT (site GGAACGTCTAA) | 1.06
13 | GGAACTACTTGGGTTCTAACCTGTTGCAC (site GGAACTACTGT) | 0.838
14 | GGAACTACTTGGGTTCTAACCTGTTGCAC (site TTGCTAGCTCC) | 0.114
15 | GGAAGCCCTTGGGTTCTAACCTGTTGCTA (site AACTAAGCTAG) | 0.0242
16 | GGAAGCCCTTGGGTTCTAACCTGTTGCTA (site GGAAGCCCTTA) | 0.694
17 | GGAAGTTCTTGGGTTCTAACCTGTTGCCT (site GAAAGTTCTAG) | 0.0496
18 | GGAAGTTCTTGGGTTCTAACCTGTTGCCT (site GCAAGTTCTAG) | 0.0862
19 | GGAAGTTCTTGGGTTCTAACCTGTTGCCT (site GGAAGTTCTAG) | 0.732
20 | GGAAGTTCTTGGGTTCTAACCTGTTGCCT (site GTAAGTTCTAG) | 0.754
21 | GGAATACCTTGGGTTCTAACCTGTTGCCT (site GGAATACCTAG) | 1.36
22 | GGAATACCTTGGGTTCTAACCTGTTGCCT (site GGAATCCCTAG) | 0.157

Row | Sequence | recombinant barcode read abundance (log10)
23 | GGAATACCTTGGGTTCTAACCTGTTGCCT (site GGAATGCCTAG) | 0.0994
24 | GGAATACCTTGGGTTCTAACCTGTTGCCT (site GGAATTCCTAG) | 0.0368
25 | GGAATGCCTTGGGTTCTAACCTGTTGCCT (site GGAATACCTAG) | 0.79
26 | GGAATGCCTTGGGTTCTAACCTGTTGCCT (site GGAATCCCTAG) | 0.0574
27 | GGAATGCCTTGGGTTCTAACCTGTTGCCT (site GGAATGCCTAG) | 0.975
28 | GGAATGCCTTGGGTTCTAACCTGTTGCCT (site GGAATTCCTAG) | 0.0966
29 | GGAATGTCTTGGGTTCTAACCTGTTGCCT (site GAAATGTCTAG) | 0.344
30 | GGAATGTCTTGGGTTCTAACCTGTTGCCT (site GCAATGTCTAG) | 0.0847
31 | GGAATGTCTTGGGTTCTAACCTGTTGCCT (site GGAATGTCTAG) | 2.09
32 | GGAATGTCTTGGGTTCTAACCTGTTGCCT (site GTAATGTCTAG) | 0.0368
33 | GGAATTCCTTGGGTTCTAACCTGTTGCCT (site GGAATACCTAG) | 0.129
34 | GGAATTCCTTGGGTTCTAACCTGTTGCCT (site GGAATCCCTAG) | 0
35 | GGAATTCCTTGGGTTCTAACCTGTTGCCT (site GGAATGCCTAG) | 0.0669
36 | GGAATTCCTTGGGTTCTAACCTGTTGCCT (site GGAATTCCTAG) | 0.0376
37 | GGACAATCTTGGGTTCTAACCTGTTGCCT (site GGACAATCTAG) | 1.53
38 | GGACAATCTTGGGTTCTAACCTGTTGCCT (site GGACCATCTAG) | 0.174
39 | GGACAATCTTGGGTTCTAACCTGTTGCCT (site GGACGATCTAG) | 0.376
40 | GGACAATCTTGGGTTCTAACCTGTTGCCT (site GGACTATCTAG) | 0.0608
41 | GGACATGCTTGGGTTCTAACCTGTTGCGT (site CGACATACTAC) | 0.219
42 | GGACATGCTTGGGTTCTAACCTGTTGCGT (site GGACATGCTAC) | 2.7
43 | GGACCGCCTTGGGTTCTAACCTGTTGCCT (site CGATCGCCTAG) | 0.129
44 | GGACCGCCTTGGGTTCTAACCTGTTGCCT (site GGACCGCCTAG) | 0.626

Row | Sequence | recombinant barcode read abundance (log10)
45 | GGACGAGCTTGGGTTCTAACCTGTTGCTG (site ATCTATACTAG) | 0.0905
46 | GGACGAGCTTGGGTTCTAACCTGTTGCTG (site GGACGAGCTCA) | 2.46
47 | GGACGGACTTGGGTTCTAACCTGTTGCCA (site GGACGGACTTG) | 1.68
48 | GGACGGACTTGGGTTCTAACCTGTTGCCA (site GGTCGGACTTG) | 0.417
49 | GGACTATCTTGGGTTCTAACCTGTTGCCT (site GGACAATCTAG) | 0.104
50 | GGACTATCTTGGGTTCTAACCTGTTGCCT (site GGACCATCTAG) | 0.297
51 | GGACTATCTTGGGTTCTAACCTGTTGCCT (site GGACGATCTAG) | 0.011
52 | GGACTATCTTGGGTTCTAACCTGTTGCCT (site GGACTATCTAG) | 1.18
53 | GGACTCACTTGGGTTCTAACCTGTTGCCT (site GGACTCACTAG) | 1.77
54 | GGACTCACTTGGGTTCTAACCTGTTGCCT (site GGATTCTCTAG) | 0.15
55 | GGAGAACCTTGGGTTCTAACCTGTTGCCT (site AGAGAACCTAG) | 1.85
56 | GGAGAACCTTGGGTTCTAACCTGTTGCCT (site CGAGAACCTAG) | 0.492
57 | GGAGAACCTTGGGTTCTAACCTGTTGCCT (site GGAGAACCTAG) | 2.48
58 | GGAGAACCTTGGGTTCTAACCTGTTGCCT (site TGAGAACCTAG) | 1.56
59 | GGAGAGGCTTGGGTTCTAACCTGTTGCCT (site GGAGAAGCTAG) | 0.893
60 | GGAGAGGCTTGGGTTCTAACCTGTTGCCT (site GGAGACGCTAG) | 0.143
61 | GGAGAGGCTTGGGTTCTAACCTGTTGCCT (site GGAGAGGCTAG) | 1.54
62 | GGAGAGGCTTGGGTTCTAACCTGTTGCCT (site GGAGATGCTAG) | 0.0967
63 | GGAGATGCTTGGGTTCTAACCTGTTGCCT (site GGAGAAGCTAG) | 0.783
64 | GGAGATGCTTGGGTTCTAACCTGTTGCCT (site GGAGACGCTAG) | 0.291
65 | GGAGATGCTTGGGTTCTAACCTGTTGCCT (site GGAGAGGCTAG) | 0.226
66 | GGAGATGCTTGGGTTCTAACCTGTTGCCT (site GGAGATGCTAG) | 1.74

Row | Sequence | recombinant barcode read abundance (log10)
67 | GGAGCAGCTTGGGTTCTAACCTGTTGCCT (site GGAGCACCTAG) | 0.223
68 | GGAGCAGCTTGGGTTCTAACCTGTTGCCT (site GGAGCAGCTAG) | 1.16
69 | GGAGCCTCTTGGGTTCTAACCTGTTGCTC (site GGAGCCTCTGA) | 1.7
70 | GGAGCCTCTTGGGTTCTAACCTGTTGCTC (site GGGGCCTCTCA) | 0.177
71 | GGAGCTCCTTGGGTTCTAACCTGTTGCCG (site ACTCACACTAA) | 0.152
72 | GGAGCTCCTTGGGTTCTAACCTGTTGCCG (site GGAGCTCCTCG) | 0.846
73 | GGAGGGTCTTGGGTTCTAACCTGTTGCTT (site AGAGGGTCTAA) | 0.693
74 | GGAGGGTCTTGGGTTCTAACCTGTTGCTT (site CGAGGGTCTAA) | 0.229
75 | GGAGGGTCTTGGGTTCTAACCTGTTGCTT (site GGAGGGTCTAA) | 1.72
76 | GGAGGGTCTTGGGTTCTAACCTGTTGCTT (site TGAGGGTCTAA) | 0.292
77 | GGATACACTTGGGTTCTAACCTGTTGCCG (site GGATACACTCG) | 1.66
78 | GGATACACTTGGGTTCTAACCTGTTGCCG (site TAGACGGCTAT) | 0.342
79 | GGATACACTTGGGTTCTAACCTGTTGCGT (site GGATACACTAC) | 2.76
80 | GGATACACTTGGGTTCTAACCTGTTGCGT (site GGATAGACTAC) | 0.0769
81 | GGATCCACTTGGGTTCTAACCTGTTGCCT (site AGATCCACTAG) | 0.306
82 | GGATCCACTTGGGTTCTAACCTGTTGCCT (site CGATCCACTAG) | 0.0861
83 | GGATCCACTTGGGTTCTAACCTGTTGCCT (site GGATCCACTAG) | 0.399
84 | GGATCCACTTGGGTTCTAACCTGTTGCCT (site TGATCCACTAG) | 0.139
85 | GGATCCTCTTGGGTTCTAACCTGTTGCAT (site GGATCCTCTAT) | 1.69
86 | GGATCCTCTTGGGTTCTAACCTGTTGCAT (site GGCTCCTCTAT) | 0.149

— the supplement of paper PMC11208160
